Test results: the supplement of paper PMC10307832

Tests used:
Assay in all cases: relative viability (nuclei count vs DMSO), 5 days (fraction); higher = more cells survive
Ponatinib + OSI-027 = compound: Cc1ccc(C(=O)Nc2ccc(CN3CCN(C)CC3)c(C(F)(F)F)c2)cc1C#Cc1cnc2cccnn12 [Ponatinib] + COc1cccc2cc(-c3nc([C@H]4CC[C@H](C(=O)O)CC4)n4ncnc(N)c34)[nH]c12 [OSI-027] (partner 0.5 µM)
Outline: (§1)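 One day after seeding in 1536-well plates, lung cancer cell lines were dosed by pin tool. Dosing was either single-drug or a fixed anchor-drug dose plus five library-drug doses (not always all listed) in √10 steps. After 5 days, nuclei were stained in one fix-and-stain step and counted on 4× images, and relative viability is the nuclei count of treated wells over that of vehicle wells, given as the median of duplicate plates.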

Ponatinib + Pictilisib = compound: Cc1ccc(C(=O)Nc2ccc(CN3CCN(C)CC3)c(C(F)(F)F)c2)cc1C#Cc1cnc2cccnn12 [Ponatinib] + CS(=O)(=O)N1CCN(Cc2cc3nc(-c4cccc5[nH]ncc45)nc(N4CCOCC4)c3s2)CC1 [Pictilisib] (partner 1 µM)
Outline: as §1

Pazopanib + Lapatinib = compound: Cc1ccc(Nc2nccc(N(C)c3ccc4c(C)n(C)nc4c3)n2)cc1S(N)(=O)=O [Pazopanib] + CS(=O)(=O)CCNCc1ccc(-c2ccc3ncnc(Nc4ccc(OCc5cccc(F)c5)c(Cl)c4)c3c2)o1 [Lapatinib] (partner 2 µM)
Outline: as §1

Pazopanib + Dasatinib = compound: Cc1ccc(Nc2nccc(N(C)c3ccc4c(C)n(C)nc4c3)n2)cc1S(N)(=O)=O [Pazopanib] + Cc1nc(Nc2ncc(C(=O)Nc3c(C)cccc3Cl)s2)cc(N2CCN(CCO)CC2)n1 [Dasatinib] (partner 0.075 µM)
Outline: as §1

| Cell Line | relative viability (Ponatinib + OSI-027; first compound 0.002 µM) | relative viability (Ponatinib + OSI-027; first compound 0.006325 µM) | relative viability (Ponatinib + OSI-027; first compound 0.06325 µM) | relative viability (Ponatinib + OSI-027; first compound 0.2 µM) | relative viability (Ponatinib + Pictilisib; first compound 0.002 µM) | relative viability (Ponatinib + Pictilisib; first compound 0.006325 µM) | relative viability (Ponatinib + Pictilisib; first compound 0.06325 µM) | relative viability (Ponatinib + Pictilisib; first compound 0.2 µM) | relative viability (Pazopanib + Lapatinib; first compound 0.01 µM) | relative viability (Pazopanib + Lapatinib; first compound 0.03162 µM) | relative viability (Pazopanib + Lapatinib; first compound 0.1 µM) | relative viability (Pazopanib + Lapatinib; first compound 0.3162 µM) | relative viability (Pazopanib + Lapatinib; first compound 1 µM) | relative viability (Pazopanib + Dasatinib; first compound 0.01 µM) | relative viability (Pazopanib + Dasatinib; first compound 0.03162 µM) | relative viability (Pazopanib + Dasatinib; first compound 0.1 µM) | relative viability (Pazopanib + Dasatinib; first compound 0.3162 µM) | relative viability (Pazopanib + Dasatinib; first compound 1 µM) |
| --- | --- | --- | --- | --- | --- | --- | --- | --- | --- | --- | --- | --- | --- | --- | --- | --- | --- | --- |
| NCI-H2405 | 0.613 | 0.642 | 0.605 | 0.631 | 0.388 | 0.574 | 0.497 | 0.403 | 0.922 | 1.1 | 1.06 | 1.31 | 1.2 | 0.222 | 0.227 | 0.147 | 0.256 | 0.249 |
| NCI-H1993 | 0.516 | 0.495 | 0.469 | 0.567 | 0.804 | 0.805 | 0.73 | 0.868 | 0.69 | 0.853 | 0.573 | 0.797 | 0.927 |  | 0.6 | 0.542 | 0.588 | 0.582 |
| PC-14 | 0.747 | 0.778 | 0.933 | 0.699 | 0.637 | 0.691 | 0.794 | 0.702 | 0.305 | 0.295 | 0.304 | 0.379 | 0.45 | 0.27 | 0.241 | 0.288 | 0.267 | 0.266 |
| HARA | 0.435 | 0.497 | 0.476 | 0.393 | 0.443 | 0.478 | 0.498 | 0.296 | 0.582 | 0.746 | 0.58 | 0.725 | 0.695 | 0.23 | 0.341 | 0.241 | 0.248 | 0.337 |
| NCI-H2087 | 0.667 | 0.525 | 0.593 | 0.563 | 0.879 | 0.831 | 0.933 | 0.787 | 1.09 | 0.988 | 0.99 | 1.15 | 1.02 | 0.743 | 0.989 | 0.929 | 1.01 | 0.72 |
| NCI-H1437 | 0.809 | 0.864 | 1.01 | 0.75 | 0.445 | 0.479 | 0.495 | 0.406 | 0.919 | 0.877 | 0.823 | 0.815 | 0.785 | 0.399 | 0.465 | 0.353 | 0.396 | 0.723 |
| NCI-H1792 | 0.621 | 0.747 | 0.841 | 0.586 | 0.241 | 0.347 | 0.388 | 0.284 |  | 0.863 | 0.918 | 0.847 | 0.823 |  | 0.728 | 0.681 | 0.834 | 0.774 |
| NCI-H661 | 0.669 | 0.707 | 0.763 | 0.666 | 0.404 | 0.406 | 0.389 | 0.482 | 0.538 | 0.629 | 0.476 | 0.431 | 0.648 | 0.908 | 0.894 | 0.815 | 0.931 | 1.15 |
| COR-L23 | 0.707 | 0.73 | 0.766 | 0.604 | 0.768 | 0.753 | 1.04 | 0.703 | 0.966 | 1.07 | 1.06 | 1.2 | 1 | 0.512 | 0.503 | 0.553 | 0.449 | 0.56 |
| COR-L 105 | 0.638 | 0.807 | 1.03 | 0.744 | 0.424 | 0.379 | 0.443 | 0.567 | 0.342 | 0.414 | 0.386 | 0.341 | 0.401 | 0.351 | 0.296 | 0.327 | 0.453 | 0.406 |
| LK-2 | 0.151 | 0.217 | 0.162 | 0.147 | 0.589 | 0.555 | 0.411 | 0.446 | 0.764 | 0.804 | 0.959 | 1 | 0.952 |  | 0.305 | 0.317 | 0.373 | 0.314 |
| 201T | 0.622 | 0.724 | 0.796 | 0.711 | 0.649 | 0.685 | 0.801 | 0.725 | 0.971 | 0.998 | 1.04 | 1.04 | 1.06 | 0.526 | 0.424 | 0.568 | 0.545 | 0.666 |
| NCI-H647 | 0.565 | 0.716 | 0.69 | 0.502 | 0.381 | 0.449 | 0.434 | 0.376 | 0.87 | 1.21 | 1.17 | 1.08 | 1.16 | 0.135 | 0.21 | 0.224 | 0.243 | 0.25 |
| H3255 | 0.666 | 0.566 | 0.613 | 0.526 | 0.466 | 0.478 | 0.456 | 0.447 | 0.203 | 0.26 | 0.248 | 0.285 | 0.256 | 0.349 | 0.397 | 0.295 | 0.286 | 0.454 |
| NCI-H650 | 0.378 | 0.49 | 0.456 | 0.466 | 0.843 | 0.739 | 0.758 | 0.88 | 0.814 | 1.08 | 0.933 | 0.909 | 1.36 | 0.398 | 0.511 | 0.449 | 0.427 | 0.482 |
| NCI-H2023 | 0.347 | 0.379 | 0.399 | 0.267 | 0.261 | 0.292 | 0.298 | 0.212 | 0.509 | 0.806 | 0.73 | 0.791 | 1.35 | 0.528 | 0.566 | 0.473 | 0.535 | 0.577 |
| NCI-H23 | 0.621 | 0.645 | 0.53 | 0.456 | 0.588 | 0.592 | 0.571 | 0.44 | 0.887 | 1.3 | 1.41 | 1.09 | 1.14 | 0.722 | 0.852 | 0.94 | 0.869 | 0.894 |
| NCI-H2170 | 0.698 | 0.724 | 0.749 | 0.694 | 0.325 | 0.322 | 0.351 | 0.354 | 0.242 | 0.264 | 0.293 | 0.316 | 0.269 | 0.536 | 0.572 | 0.537 | 0.511 | 0.639 |
